Literature values, collected in US20030216871A1, “Calculating a characteristic property of a molecule by correlation analysis” (priority 2001, published 2003).

Columns and labels:
[1] = test system: human tumor cells in culture; settings: C is average IC50 from assays, values from S. P. Gupta, Chem. Review 94, 1519 (1994); cited from earlier work
[2] = experimental logP used as measured property in R matrix; cited from earlier work
[3] = organic amines, 25C, I = 0; cited from earlier work

Compound	Experimenter value of Active Concentration (log1/C) Against Human Tumor [1]	logP [2]	pK exper [3]
CO[C@@]12[C@H](COC(N)=O)C3=C(C(=O)C(C)=C(N)C3=O)N1C[C@@H]1N[C@@H]12 [Compound 1]	7.7		
C#CCNC1=C(C)C(=O)C2=C(C1=O)C(COC(N)=O)C1(OC)C3NC3CN21 (stereo not drawn) [Compound 3]	8.46	0.24	
CO[C@@]12[C@H](COC(N)=O)C3=C(C(=O)C(C)=C(NCCc4ccccn4)C3=O)N1C[C@@H]1N[C@@H]12 [Compound 6]	7.38	1.23	
COC12C(COC(N)=O)C3=C(C(=O)C(C)=C(Nc4ccccc4)C3=O)N1CC1NC12 (stereo not drawn) [Compound 7]	8.78	1.3	
COC12C(COC(N)=O)C3=C(C(=O)C(C)=C(Nc4ccc(N)cc4)C3=O)N1CC1NC12 (stereo not drawn) [Compound 8]	7.83	0.07	
COC12C(COC(N)=O)C3=C(C(=O)C(C)=C(Nc4ccc(Br)cc4)C3=O)N1CC1NC12 (stereo not drawn) [Compound 10]	8.72	2.16	
COC12C(COC(N)=O)C3=C(C(=O)C(C)=C(Nc4cccc(I)c4)C3=O)N1CC1NC12 (stereo not drawn) [Compound 11]	8.9	2.42	
COC12C(COC(N)=O)C3=C(C(=O)C(C)=C(Nc4ccc(I)cc4)C3=O)N1CC1NC12 (stereo not drawn) [Compound 12]	8.77	2.42	
COC12C(COC(N)=O)C3=C(C(=O)C(C)=C(Nc4ccc(O)cc4)C3=O)N1CC1NC12 (stereo not drawn) [Compound 13]	7.88	0.63	
CO[C@@]12[C@H](COC(N)=O)C3=C(C(=O)C(C)=C(Nc4ccc([N+](=O)[O-])cc4)C3=O)N1C[C@@H]1N[C@@H]12 [Compound 14]	9.07	1.02	
COC12C(COC(N)=O)C3=C(C(=O)C(C)=C(Nc4ccc(O)c(I)c4)C3=O)N1CC1NC12 (stereo not drawn) [Compound 15]	7.76	1.75	
COC12C(COC(N)=O)C3=C(C(=O)C(C)=C(Nc4ccc(O)c([N+](=O)[O-])c4)C3=O)N1CC1NC12 (stereo not drawn) [Compound 16]	7.71	0.51	
CO[C@@]12[C@H](COC(N)=O)C3=C(C(=O)C(C)=C(Nc4ccc5[nH]ccc5c4)C3=O)N1C[C@@H]1N[C@@H]12 [Compound 17]	8.75	2.45	
COC12C(COC(N)=O)C3=C(C(=O)C(C)=C(Nc4nc(C)cs4)C3=O)N1CC1NC12 (stereo not drawn) [Compound 18]	8.69	1.52	
COC12C(COC(N)=O)C3=C(C(=O)C(C)=C(Nc4cc[nH]n4)C3=O)N1CC1NC12 (stereo not drawn) [Compound 19]	7.38	0.56	
COC1=C(C)C(=O)C2=C(C1=O)[C@@H](COC(N)=O)[C@@]1(OC)[C@H]3N[C@H]3CN21 [Compound 20]	9.52	0.26	
COC12C(COC(N)=O)C3=C(C(=O)C(C)=C(OC4CC4)C3=O)N1CC1NC12 (stereo not drawn) [Compound 21]	9.2	0.83	
CO[C@@]12[C@H](COC(N)=O)C3=C(C(=O)C(C)=C(OCC4CC4)C3=O)N1C[C@@H]1N[C@@H]12 [Compound 22]	9.43		
COC12C(COC(N)=O)C3=C(C(=O)C(C)=C(OCC4CCC4)C3=O)N1CC1NC12 (stereo not drawn) [Compound 23]	9.66	2.47	
COC12C(COC(N)=O)C3=C(C(=O)C(C)=C(OCc4ccccc4)C3=O)N1CC1NC12 (stereo not drawn) [Compound 24]	9.21	1.94	
COC12C(COC(N)=O)C3=C(C(=O)C(C)=C(OCCO)C3=O)N1CC1NC12 (stereo not drawn) [Compound 25]	8.31	−1.1	
COC12C(COC(N)=O)C3=C(C(=O)C(C)=C(OCCOc4ccccc4)C3=O)N1CC1NC12 (stereo not drawn) [Compound 26]	9.48	1.74	
CO[C@@]12[C@H](COC(N)=O)C3=C(C(=O)C(C)=C(OCCOCCO)C3=O)N1C[C@@H]1N[C@@H]12 [Compound 27]	7.32	−1.08	
COCCOCCOC1=C(C)C(=O)C2=C(C1=O)[C@@H](COC(N)=O)[C@@]1(OC)[C@H]3N[C@H]3CN21 [Compound 28]	8.24	−0.46	
NC1C=CCCC1 (stereo not drawn) [Compound 95]			10.42
CC1=CCCCC1N (stereo not drawn) [Compound 96]			10.37
